Where a name gives a salt, the structure may show the parent alone. Read-outs that look alike come from different tables or passages of the source.
Test system: Peripheral blood mononuclear cells (PBMC)
Test: Cytokine Induction in Human Cells (in vitro human blood cell system, IFN and TNF secreted into culture media)
Type: cell-based
Set-up: key to Lowest Effective Concentration (μM) Tumor Necrosis Factor / Lowest Effective Concentration (μM) Interferon: *: no induction was seen at any of the tested concentrations
Details: 18 to 24 hours, tested 30-0.014 μM
From the text: An in vitro human blood cell system is used to assess cytokine induction. Activity is based on the measurement of interferon and tumor necrosis factor (α) (IFN and TNF, respectively) secreted into culture media as described by Testerman et. al. In “Cytokine Induction by the Immunomodulators Imiquimod and S-27609”, Journal of Leukocyte Biology, 58, 365-372 (September, 1995).
Whole blood from healthy human donors is collected by venipuncture into EDTA vacutainer tubes. Peripheral blood mononuclear cells (PBMC) are separated from whole blood by density gradient centrifugation using Histopaque®-1077. Blood is diluted 1:1 with Dulbecco's Phosphate Buffered Saline (DPBS) or Hank's Balanced Salts Solution (HBSS). The PBMC layer is collected and washed twice with DPBS or HBSS and resuspended at 4×10^6 cells/mL in RPMI complete. The PBMC suspension is added to 48 well flat bottom sterile tissue culture plates (Costar, Cambridge, Mass. or Becton Dickinson Labware, Lincoln Park, N.J.) containing an equal volume of RPMI complete media containing test compound.
The compounds are solubilized in dimethyl sulfoxide (DMSO). The DMSO concentration should not exceed a final concentration of 1% for addition to the culture wells. The compounds are generally tested at concentrations ranging from 30-0.014 μM.
The solution of test compound is added at 60 μM to the first well containing RPMI complete and serial 3 fold dilutions are made in the wells. The PBMC suspension is then added to the wells in an equal volume, bringing the test compound concentrations to the desired range (30-0.014 μM). The final concentration of PBMC suspension is 2×10^6 cells/mL. The plates are covered with sterile plastic lids, mixed gently and then incubated for 18 to 24 hours at 37° C. in a 5% carbon dioxide atmosphere.
Following incubation the plates are centrifuged for 10 minutes at 1000 rpm (˜200×g) at 4° C. The cell-free culture supernatant is removed with a sterile polypropylene pipet and transferred to sterile polypropylene tubes. Samples are maintained at −30 to −70° C. until analysis. The samples are analyzed for interferon (α) by ELISA and for tumor necrosis factor (α) by ELISA or IGEN Assay.
Interferon (α) concentration is determined by ELISA using a Human Multi-Species kit from PBL Biomedical Laboratories, New Brunswick, N.J. Results are expressed in pg/mL.
Tumor necrosis factor (α) (TNF) concentration is determined using ELISA kits available from Biosource International, Camarillo, Calif. Alternately, the TNF concentration can be determined by Origen® M-Series Immunoassay and read on an IGEN M-8 analyzer from IGEN International, Gaithersburg, Md. The immunoassay uses a human TNF capture and detection antibody pair from Biosource International, Camarillo, Calif. Results are expressed in pg/mL.
The table below lists the lowest concentration found to induce interferon and the lowest concentration found to induce tumor necrosis factor for each compound.

[1] = Homo sapiens, PBMC, lowest concentration found to induce interferon (α), ELISA, read-out: Lowest Effective Concentration (μM) Interferon
[2] = Homo sapiens, PBMC, lowest concentration found to induce tumor necrosis factor (α), ELISA or IGEN assay, read-out: Lowest Effective Concentration (μM) Tumor Necrosis Factor
[3] = lowest concentration found to induce tumor necrosis factor (α), ELISA or IGEN assay
[4] = lowest concentration found to induce interferon (α), ELISA
[5] = lowest concentration found to induce interferon (α), ELISA, read-out: Lowest Effective Concentration (μM) Interferon

Row | Structure (SMILES) | minimal effective concentration [1] [µM] | Lowest Effective Concentration (μM) Tumor Necrosis Factor [3] | also measured
1 | CC(C)c1ccccc1C#CCOCCn1cnc2c(N)nc3ccccc3c21 [Example 7, 1-(2-{[3-(2-Isopropylphenyl)-2-propynyl]oxy}ethyl)-1H-imidazo[4,5-c]quinolin-4-amine Hydrochloride] | 1.11 |  | minimal effective concentration [2]: 0.37 µM
2 | Nc1nc2ccccc2c2c1ncn2CCOCCCc1ccc(-n2cccc2)cc1 [Example 11, 1-(2-{3-[4-(1H-1-Pyrrolyl)phenyl]propoxy}ethyl)-1H-imidazo[4,5-c]quinolin-4-amine trifluoroacetate] | 1.11 | * | 
3 | Nc1nc2ccccc2c2c1ncn2CCOCCCc1cccc(C(=O)O)c1 [Example 12, 3-{3-[2-(4-Amino-1H-imidazo[4,5-c]quinolin-1-yl)ethoxy]propyl}benzoic acid bis(trifluoroacetate)] | 10 | * | 
4 | Nc1nc2ccccc2c2c1ncn2CCOCCCc1ccccc1C(=O)O [Example 13, 2-{3-[2-(4-Amino-1H-imidazo[4,5-c]quinolin-1-yl)ethoxy]propyl}benzoic acid trifluoroacetate] | 10 |  | minimal effective concentration [2]: 10 µM
5 | Nc1nc2ccccc2c2c1ncn2CCOCCCc1ccc(C(=O)O)cc1 [Example 14, 4-{3-[2-(4-Amino-1H-imidazo[4,5-c]quinolin-1-yl)ethoxy]propyl}benzoic acid trifluoroacetate] | 10 |  | minimal effective concentration [2]: 10 µM
6 | CN(C)c1cccc(CCCOCCn2cnc3c(N)nc4ccccc4c32)c1 [Example 15, 1-(2-{3-[3-(Dimethylamino)phenyl]propoxy}ethyl)-1H-imidazo[4,5-c]quinolin-4-amine dihydrochloride] | 0.12 | * | 
7 | CCOCc1nc2c(N)nc3ccccc3c2n1CCOCCCc1ccccc1 [Example 16, 2-(Ethoxymethyl)-1-[2-(3-phenylpropoxy)ethyl]-1H-imidazo[4,5-c]quinolin-4-amine Hydrochloride] | 0.01 |  | minimal effective concentration [2]: 0.37 µM
8 | Nc1ccccc1CCCOCCn1cnc2c(N)nc3ccccc3c21 [Example 18, 1-{2-[3-(2-Aminophenyl)propoxy]ethyl}-1H-imidazo[4,5-c]quinolin-4-amine trifluoroacetate] | 0.12 |  | minimal effective concentration [2]: 1.11 µM
9 | CCOCc1nc2c(N)nc3ccccc3c2n1CCOCCCCCCOCCCCc1ccccc1 [Example 20, 2-(Ethoxymethyl)-1-(2-{[6-(4-phenylbutoxy)hexyl]oxy}ethyl)-1H-imidazo[4,5-c]quinoline-4-amine] |  | * | Lowest Effective Concentration (μM) Interferon [4]: *
10 | CCOCc1nc2c(N)nc3ccccc3c2n1CCOCCCOCc1ccccc1 [Example 21, 1-{2-[3-(Benzyloxy)propoxy]ethyl}-2-(ethoxymethyl)-1H-imidazo[4,5-c]quinolin-4-amine] | 0.12 | * | 
11 | Nc1nc2ccccc2c2c1ncn2CCOCCCc1ccccc1 [Example 22, 1-[2-(3-Phenylpropoxy)ethyl]-1H-imidazo[4,5-c]quinolin-4-amine] | 0.12 |  | minimal effective concentration [2]: 0.37 µM
12 | CCC(COCc1ccccc1)n1cnc2c(N)nc3ccccc3c21 (stereo not shown) [Example 24] | 0.12 | * | 
13 | CCC(COCc1cccc(C)c1)n1cnc2c(N)nc3ccccc3c21 (stereo not shown) [Example 25] | 0.12 | * | 
14 | CCC(COCc1cccc(C(F)(F)F)c1)n1cnc2c(N)nc3ccccc3c21 (stereo not shown) [Example 26] | 0.12 | * | 
15 | CCC(COCc1ccc(Br)cc1)n1cnc2c(N)nc3ccccc3c21 (stereo not shown) [Example 27] | 0.12 | * | 
16 | Nc1nc2ccccc2c2c1ncn2CC(OCc1ccccc1)c1ccccc1 (stereo not shown) [Example 28] | 10 | * | 
17 | Nc1nc2ccccc2c2c1ncn2CC(OCc1ccc(Cl)cc1)c1ccccc1 (stereo not shown) [Example 29] |  | * | Lowest Effective Concentration (μM) Interferon [4]: *
18 | Nc1nc2ccccc2c2c1ncn2CC(OCc1cccc(Cl)c1)c1ccccc1 (stereo not shown) [Example 30] | 3.33 | * | 

Row | Structure (SMILES) | minimal effective concentration [1] [µM] | Lowest Effective Concentration (μM) Tumor Necrosis Factor [3] | also measured
19 | Cc1ccc(COC(Cn2cnc3c(N)nc4ccccc4c32)c2ccccc2)cc1 (stereo not shown) [Example 31] |  | * | Lowest Effective Concentration (μM) Interferon [4]: *
20 | Cc1cccc(COC(Cn2cnc3c(N)nc4ccccc4c32)c2ccccc2)c1 (stereo not shown) [Example 32] | 10 | * | 
21 | CC(C)(Cn1cnc2c(N)nc3ccccc3c21)OCc1ccccc1 [Example 33] |  | * | Lowest Effective Concentration (μM) Interferon [4]: *
22 | CC(C)(Cn1cnc2c(N)nc3ccccc3c21)OCc1ccc(Cl)cc1 [Example 34] |  | * | Lowest Effective Concentration (μM) Interferon [4]: *
23 | CC(C)(Cn1cnc2c(N)nc3ccccc3c21)OCc1cccc(Cl)c1 [Example 35] |  | * | Lowest Effective Concentration (μM) Interferon [4]: *
24 | Cc1ccc(COC(C)(C)Cn2cnc3c(N)nc4ccccc4c32)cc1 [Example 36] |  | * | Lowest Effective Concentration (μM) Interferon [4]: *
25 | Cc1cccc(COC(C)(C)Cn2cnc3c(N)nc4ccccc4c32)c1 [Example 37] |  | * | Lowest Effective Concentration (μM) Interferon [4]: *
26 | CC(C)(Cn1cnc2c(N)nc3ccccc3c21)OCc1ccccc1Cl [Example 38] | 10 | * | 
27 | CC(C)(Cn1cnc2c(N)nc3ccccc3c21)OCc1ccccc1C#N [Example 39] | 1.11 | * | 
28 | CCC(COCc1ccccc1Cl)n1cnc2c(N)nc3ccccc3c21 (stereo not shown) [Example 40] | 0.12 | * | 
29 | COC(=O)c1ccc(COCCn2cnc3c(N)nc4ccccc4c32)cc1 [Example 41] | 1.11 |  | minimal effective concentration [2]: 3.33 µM
30 | Nc1nc2ccccc2c2c1ncn2CCOCc1ccccc1 [Example 42] | 0.37 | * | 
31 | CCC(COCC(=O)OC)n1cnc2c(N)nc3ccccc3c21 (stereo not shown) [Example 43] | 0.37 | * | 
32 | CCC(COCc1cccc(OC(F)(F)F)c1)n1cnc2c(N)nc3ccccc3c21 (stereo not shown) [Example 45] | 0.37 | * | 
33 | CCC(COCc1ccc(C#N)cc1)n1cnc2c(N)nc3ccccc3c21 (stereo not shown) [Example 46] |  |  | minimal effective concentration [5]: 0.01 µM; minimal effective concentration (lowest concentration found to induce tumor necrosis factor (α), ELISA or IGEN assay, read-out: Lowest Effective Concentration (μM) Tumor Necrosis Factor): 3.33 µM
34 | CCC(COCc1cccc(Cl)c1)n1cnc2c(N)nc3ccccc3c21 (stereo not shown) [Example 47] |  | * | minimal effective concentration [5]: 0.12 µM
35 | CCC(COCc1ccc(OC(F)(F)F)cc1)n1cnc2c(N)nc3ccccc3c21 (stereo not shown) [Example 48] | 0.12 | * | 
